For experiment [1], the target named is Recombinant Human NF-Kappab-Inducing Kinase (NIK/MAP3K14) (Homo sapiens, UniProt Q99558). Description: Inhibition of auto-phosphorylation of recombinant human NIK/MAP3K14 (AlphaScreen). The experiment is classed as biochemical. The conditions noted are these: NIK/MAP3K14 auto-phosphorylation, 5 microM ATP, 1 nM enzyme, 2 h at 25° C.; average of values; read-out: Assay 1 IC50. An outline of the steps:
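AlphaScreen read-out used anti-phospho-IKK Ser176/180 antibody after 2 h, 25 °C incubation of compound, 1 nM GST-NIK and 5 µM ATP (final DMSO 0.7%). Percent inhibition referenced to high (enzyme) and low (no enzyme, no ATP) controls; sigmoidal curve fitting gave IC50.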

The test system of experiment [2] is p-IKKα levels in L363 (NIK translocated multiple myeloma) cells. Description: Effect of compounds on p-IKKα levels in L363 cells (AlphaLISA SureFire Ultra). The format is cell-based. The conditions noted are these: Homo sapiens, L-363; L363 cells, BAFF stimulated, MG132, 6 h; average of values; read-out: Assay 2 IC50. An outline of the steps:
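Phospho-IKKα (Ser 176/180) was quantified by AlphaLISA in lysed L363 cells after 6 h compound exposure (0.3% DMSO, 11 points, 1:3) alongside 250 ng/ml BAFF and 10 uM MG132, following overnight BAFF priming in low-serum DMEM. Duplicate curves were scaled between BAFF/DMSO/MG132 and unstimulated DMSO wells, then fitted sigmoidally for IC50.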

Recombinant Human NF-Kappab-Inducing Kinase (NIK/MAP3K14), sequence (Q99558 whole entry): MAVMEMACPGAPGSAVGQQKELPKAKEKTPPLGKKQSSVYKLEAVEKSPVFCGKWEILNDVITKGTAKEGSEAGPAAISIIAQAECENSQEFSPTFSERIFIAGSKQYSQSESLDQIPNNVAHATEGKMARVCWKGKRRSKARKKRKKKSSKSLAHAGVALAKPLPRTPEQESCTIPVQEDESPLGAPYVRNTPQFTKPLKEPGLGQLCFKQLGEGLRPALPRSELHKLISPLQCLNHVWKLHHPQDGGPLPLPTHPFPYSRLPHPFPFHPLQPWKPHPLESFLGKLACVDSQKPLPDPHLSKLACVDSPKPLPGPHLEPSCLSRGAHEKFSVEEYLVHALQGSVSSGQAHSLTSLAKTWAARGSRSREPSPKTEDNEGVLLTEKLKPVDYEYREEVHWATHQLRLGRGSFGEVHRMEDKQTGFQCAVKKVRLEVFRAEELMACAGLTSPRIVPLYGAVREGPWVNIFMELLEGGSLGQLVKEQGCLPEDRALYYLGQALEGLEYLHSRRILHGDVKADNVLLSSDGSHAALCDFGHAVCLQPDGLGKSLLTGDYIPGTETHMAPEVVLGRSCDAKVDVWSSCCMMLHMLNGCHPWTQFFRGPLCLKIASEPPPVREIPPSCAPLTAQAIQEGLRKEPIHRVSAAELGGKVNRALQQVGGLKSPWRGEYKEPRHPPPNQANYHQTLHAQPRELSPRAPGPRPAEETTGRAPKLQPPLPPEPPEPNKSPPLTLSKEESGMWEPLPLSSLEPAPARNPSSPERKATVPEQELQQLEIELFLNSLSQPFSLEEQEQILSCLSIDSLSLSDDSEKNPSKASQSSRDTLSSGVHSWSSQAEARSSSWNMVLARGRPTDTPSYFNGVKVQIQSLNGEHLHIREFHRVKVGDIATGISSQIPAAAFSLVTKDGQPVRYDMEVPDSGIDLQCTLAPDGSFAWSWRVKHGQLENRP

Turning to `COc1cc(-c2cccc(-c3cc([C@]4(O)CCN(C)C4=O)on3)c2)nc2[nH]ncc12` [Example 224, (R)-3-Hydroxy-3-(3-(3-(4-methoxy-1H-pyrazolo[3,4-b]pyridin-6-yl)phenyl)isoxazol-5-yl)-1-methylpyrrolidin-2-one], the IC50 was 100 to 500 nM in experiment [1] and more than 501 nM in experiment [2].

Take `CN1CC[C@@](O)(c2cc(-c3cccc(-c4cc(C(F)(F)F)c5cn[nH]c5n4)c3)no2)C1=O` [Example 225, (R)-3-Hydroxy-1-methyl-3-(3-(3-(4-(trifluoromethyl)-1H-pyrazolo[3,4-b]pyridin-6-yl)phenyl)isoxazol-5-yl)pyrrolidin-2-one]: the IC50 was 100 to 500 nM in experiment [1] and more than 501 nM in experiment [2].

Take `CN1CC[C@@](O)(c2cc(-c3cccc(-c4ncc5cn[nH]c5n4)c3)no2)C1=O` [Example 226, (R)-3-(3-(3-(1H-Pyrazolo[3,4-d]pyrimidin-6-yl)phenyl)isoxazol-5-yl)-3-hydroxy-1-methylpyrrolidin-2-one]: the IC50 in experiment [1] and in experiment [2] was more than 501 nM each time.

Consider `CN1CC[C@@](O)(c2cc(-c3cccc(-c4ncc5cnn(C)c5n4)c3)no2)C1=O` [Example 227, (R)-3-Hydroxy-1-methyl-3-(3-(3-(1-methyl-1H-pyrazolo[3,4-d]pyrimidin-6-yl)phenyl)isoxazol-5-yl)pyrrolidin-2-one], for which the half-maximal inhibitory concentration (IC50) in experiment [1] is 100 to 500 nM; in experiment [2] it was more than 501 nM.

Turning to `CN1CC[C@@](O)(c2cc(-c3cccc(-c4ccc5[nH]ncc5n4)c3)no2)C1=O` [Example 228, (R)-3-(3-(3-(1H-Pyrazolo[4,3-b]pyridin-5-yl)phenyl)isoxazol-5-yl)-3-hydroxy-1-methylpyrrolidin-2-one], the 50% inhibitory concentration (IC50) in experiment [1] was 100 to 500 nM; in experiment [2] it was more than 501 nM.

Consider `CN1CC[C@@](O)(c2cc(-c3cccc(-c4ccc5c(cnn5C)n4)c3)no2)C1=O` [Example 229, (R)-3-Hydroxy-1-methyl-3-(3-(3-(1-methyl-1H-pyrazolo[4,3-b]pyridin-5-yl)phenyl)isoxazol-5-yl)pyrrolidin-2-one], for which the IC50 in experiment [1] and in experiment [2] was more than 501 nM each time.

`COc1cc(-c2cccc(-c3cc([C@]4(O)CCN(C)C4=O)on3)c2)nc2c1c(C)nn2C` [Example 230, (R)-3-Hydroxy-3-(3-(3-(4-methoxy-1,3-dimethyl-1H-pyrazolo[3,4-b]pyridin-6-yl)phenyl)isoxazol-5-yl)-1-methylpyrrolidin-2-one]: the IC50 in experiment [1] is 100 to 500 nM; in experiment [2] it was more than 501 nM.

Consider `CN1CC[C@@](O)(c2cc(-c3cccc(-c4nc(C(N)=O)c(CN5CCCC5)s4)c3)no2)C1=O` [Example 231, (R)-2-(3-(5-(3-Hydroxy-1-methyl-2-oxopyrrolidin-3-yl)isoxazol-3-yl)phenyl)-5-(pyrrolidin-1-ylmethyl)thiazole-4-carboxamide], for which the IC50 in experiment [1] is less than 100 nM; in experiment [2], more than 501 nM.

For the compound `CN1CC[C@@](O)(c2cc(-c3cccc(-c4nc(C(N)=O)c5n4CCN(CCC(F)(F)F)C5)c3)no2)C1=O` [Example 232, (R)-3-(3-(5-(3-Hydroxy-1-methyl-2-oxopyrrolidin-3-yl)isoxazol-3-yl)phenyl)-7-(3,3,3-trifluoropropyl)-5,6,7,8-tetrahydroimidazo[1,5-a]pyrazine-1-carboxamide], the IC50 in experiment [1] and in experiment [2] was more than 501 nM throughout.

Turning to `CC(C)N1CCn2c(-c3cccc(-c4cc([C@]5(O)CCN(C)C5=O)on4)c3)nc(C(N)=O)c2C1` [Example 233, (R)-3-(3-(5-(3-Hydroxy-1-methyl-2-oxopyrrolidin-3-yl)isoxazol-3-yl)phenyl)-7-isopropyl-5,6,7,8-tetrahydroimidazo[1,5-a]pyrazine-1-carboxamide], the half-maximal inhibitory concentration (IC50) in experiment [1] and in experiment [2] was more than 501 nM in each case.

Consider `CN1CC[C@@](O)(c2cc(-c3cccc(-c4nc(C(N)=O)c5n4CCN(Cc4ccccc4)C5)c3)no2)C1=O` [Example 234, (R)-7-Benzyl-3-(3-(5-(3-hydroxy-1-methyl-2-oxopyrrolidin-3-yl)isoxazol-3-yl)phenyl)-5,6,7,8-tetrahydroimidazo[1,5-a]pyrazine-1-carboxamide], for which the IC50 in experiment [1] and in experiment [2] was more than 501 nM each time.

On to `Cc1ncc(C#N)cc1Nc1sc(-c2cccc(-c3cc([C@]4(O)CCN(C)C4=O)on3)c2)nc1C(N)=O` [Example 235, (R)-5-((5-Cyano-2-methylpyridin-3-yl)amino)-2-(3-(5-(3-hydroxy-1-methyl-2-oxopyrrolidin-3-yl)isoxazol-3-yl)phenyl)thiazole-4-carboxamide], for which the IC50 in experiment [1] and in experiment [2] was less than 100 nM in each case.

`CN1CC[C@@](O)(c2cc(-c3cccc(-c4nc(C(N)=O)c(Nc5ccn(C)n5)s4)c3)no2)C1=O` [Example 236, (R)-2-(3-(5-(3-Hydroxy-1-methyl-2-oxopyrrolidin-3-yl)isoxazol-3-yl)phenyl)-5-((1-methyl-1H-pyrazol-3-yl)amino)thiazole-4-carboxamide]: the IC50 in experiment [1] and in experiment [2] was less than 100 nM in each case.

In the case of `CN1CC[C@@](O)(c2cc(-c3cccc(-c4nc(C(N)=O)c(CN)s4)c3)no2)C1=O` [Example 237, (R)-5-(Aminomethyl)-2-(3-(5-(3-hydroxy-1-methyl-2-oxopyrrolidin-3-yl)isoxazol-3-yl)phenyl)thiazole-4-carboxamide], the IC50 is less than 100 nM in experiment [1] and more than 501 nM in experiment [2].

Turning to `CN1CC[C@@](O)(c2cc(-c3cccc(-c4nc(C(N)=O)c(CNc5ccn(C)n5)s4)c3)no2)C1=O` [Example 238, (R)-2-(3-(5-(3-Hydroxy-1-methyl-2-oxopyrrolidin-3-yl)isoxazol-3-yl)phenyl)-5-(((1-methyl-1H-pyrazol-3-yl)amino)methyl)thiazole-4-carboxamide], the IC50 was less than 100 nM in experiment [1] and 100 to 500 nM in experiment [2].

`Cc1cn(C)nc1Nc1sc(-c2cccc(-c3cc([C@]4(O)CCN(C)C4=O)on3)c2)nc1C(N)=O` [Example 239, (R)-5-((1,4-Dimethyl-1H-pyrazol-3-yl)amino)-2-(3-(5-(3-hydroxy-1-methyl-2-oxopyrrolidin-3-yl)isoxazol-3-yl)phenyl)thiazole-4-carboxamide]: the IC50 in experiment [1] and in experiment [2] was less than 100 nM throughout.

As for `CN1CC[C@@](O)(c2cc(-c3ccc(F)c(-c4cc(C(F)(F)F)cc(C(N)=O)n4)c3)no2)C1=O` [Example 240, (R)-6-(2-Fluoro-5-(5-(3-hydroxy-1-methyl-2-oxopyrrolidin-3-yl)isoxazol-3-yl)phenyl)-4-(trifluoromethyl)picolinamide], the half-inhibitory concentration (IC50) in experiment [1] is less than 100 nM; in experiment [2], more than 501 nM.

Consider `CN1CC[C@@](O)(c2cc(-c3ccnc(-c4cc(C5CC5)c(N)c(C(N)=O)n4)c3)no2)C1=O` [Example 241, (R)-5-Amino-4-cyclopropyl-4′-(5-(3-hydroxy-1-methyl-2-oxopyrrolidin-3-yl)isoxazol-3-yl)-[2,2′-bipyridine]-6-carboxamide], for which the IC50 in experiment [1] and in experiment [2] was less than 100 nM throughout.

As for `CN1CC[C@@](O)(c2cc(-c3cccc(-c4cc(C5CC5)c(N)c(C(N)=O)n4)c3F)no2)C1=O` [Example 242, (R)-3-Amino-4-cyclopropyl-6-(2-fluoro-3-(5-(3-hydroxy-1-methyl-2-oxopyrrolidin-3-yl)isoxazol-3-yl)phenyl)picolinamide], the IC50 in experiment [1] and in experiment [2] was less than 100 nM throughout.

On to `CN1CC[C@@](O)(c2cc(-c3cc(F)cc(-c4cc(C5CC5)c(N)c(C(N)=O)n4)c3)no2)C1=O` [Example 243, (R)-3-Amino-4-cyclopropyl-6-(3-fluoro-5-(5-(3-hydroxy-1-methyl-2-oxopyrrolidin-3-yl)isoxazol-3-yl)phenyl)picolinamide], for which the IC50 in experiment [1] and in experiment [2] was less than 100 nM throughout.

On to `CN1CC[C@@](O)(c2cc(-c3cc(-c4cc(C5CC5)c(N)c(C(N)=O)n4)ccc3F)no2)C1=O` [Example 244, (R)-3-Amino-4-cyclopropyl-6-(4-fluoro-3-(5-(3-hydroxy-1-methyl-2-oxopyrrolidin-3-yl)isoxazol-3-yl)phenyl)picolinamide], for which the concentration for half-maximal inhibition (IC50) was less than 100 nM in experiment [1] and more than 501 nM in experiment [2].

Take `CN1CC[C@@](O)(c2cc(-c3ccc(F)c(-c4cc(C5CC5)c(N)c(C(N)=O)n4)c3)no2)C1=O` [Example 245, (R)-3-Amino-4-cyclopropyl-6-(2-fluoro-5-(5-(3-hydroxy-1-methyl-2-oxopyrrolidin-3-yl)isoxazol-3-yl)phenyl)picolinamide]: the IC50 in experiment [1] and in experiment [2] was less than 100 nM each time.
